We go through 1 compound from patent publication US6610324B2, “Flupirtine in the treatment of fibromyalgia and related conditions” (The McLean Hospital Corporation, priority 1999, dated 2003).

Each structure is given as a SMILES string.

For series [1] the following is noted: cited from earlier work.
Series [2] has as its system patients with fibromyalgia. In words: Flupirtine treatment of patients with fibromyalgia. In kind it is in vivo. The source says: Flupirtine is an analgesic that has been used in Europe to treat the pain associated with surgery, cancer, trauma, and liver disease. It acts via the central nervous system through non-opite pain pathways, possibly involving the thalamus or spinal pain pathways.

For series [3] the following is noted: in some, but not all, studies; cited from earlier work.

Turning to `CCOC(=O)Nc1ccc(NCc2ccc(F)cc2)nc1N` [flupirtine, 2-amino-3-carbethoxyamino-6-(4-fluorobenzylamino)-pyridine], the withdrawal symptoms entry in series [1] (abrupt discontinuation of administration) is “does not produce withdrawal symptoms”. Further, in series [1] (compared with opiate drugs), the sedation result is listed as “less sedating than opiate drugs”. The addiction and abuse entry in series [1] (compared with opiates, no reports of abuse) was “not addictive”. Further, the “tolerance to analgesic effects” value in series [1] (human, in vivo) was “do not acquire a tolerance”. Besides, in series [1] (relatively safe at dosages lower than 600 mg per day), the reported side effects entry is “dizziness, drowsiness, pruritus, dry mouth, and, less frequently, nausea, depression, sleep disturbance, and headache”. In addition, in series [1] (unlike opiates), the cardiovascular side effects result is reported as “not associated with cardiovascular side effects” and the muscle relaxant properties entry is “exhibits muscle relaxant properties”. In series [2] (patients with fibromyalgia and related conditions), the “analgesic action compared with opiates” value is listed as “roughly comparable to the effect produced by opiates”. In addition, the “effect on chronic and severe body pain” value in series [2] (some patients with fibromyalgia, also where high doses of opiates, NSAIDs and placquenil fail) is “completely eliminating the chronic and severe body pain”. Also, the “effectiveness in relieving pain compared with opiates” value in series [3] is listed as “as effective as opiates”.
